For orientation: pIC50 means the IC50 on a negative log10 scale, so that one unit is a factor of ten. A high value points to a low IC50. By pEC50 is commonly meant the negative decadic logarithm of the EC50, by convention in mol/L. A low value points to a large EC50.

Structures are written as SMILES. pEC50, pIC50: −log10 of the molar value.

The results in this text go back to patent US9346813B2, “Substituted pyrrolo[2,3-d]pyrimindines as CDK9 kinase inhibitors” (AbbVie Inc., priority 2014, dated 2016).

One test addresses T1, CDK9/Cyclin T1 (Homo sapiens, UniProt P50750).
T1 construct: purchased Carna Biosciences 04-110
Kind of test: CDK9 enzyme protocol (LANCE ULight TR-FRET kinase assay). The class given is biochemical. The conditions noted are these: 4 nM CDK9/Cyclin T1, 1000 μM ATP, 100 nM U-light MBP peptide, 30 minutes. As for the experimental part:
CDK9 enzyme activities were measured using LANCE ULight TR-FRET kinase assay reagents (PerkinElmer, Waltham, Mass.). Compounds were directly added in 100% DMSO to white low volume assay plates (Perkin Elmer Proxiplate 6008289) using a Labcyte Echo acoustic dispenser. Assay reagents in serine/threonine kinase assay buffer containing 20 mM HEPES, 10 mM MgCl2, 100 mM Na3VO4, and 0.0075% Triton X-100. were added for final reaction mixture concentrations of 1000 μM ATP, 100 nM U-light MBP peptide (Perkin Elmer TRF0109M) and reaction initiated with 4 nM CDK9/Cyclin T1 (Carna Biosciences 04-110). The kinase reaction was carried out for 30 minutes before addition of stopping buffer to a final of 20 mM EDTA and 0.5 nM of LANCE Ultra Europium anti-phospho-MBP antibody (PerkinElmer TRF0201M) in LANCE detection buffer (PerkinElmer CR97-100). The reaction was equilibrated for 1 hour and the signal read in the Perkin Elmer Envision in TR-FRET mode (excitation at 320 nm and emission at 615/665 nm).
(In general: TR-FRET usually uses a lanthanide donor and a delayed reading to cut background.)

The next test relates to H929 cells. The test is described as follows: Cell viability assay in H929 cells (Cell TiterGlo). The class given is cell-based. Particulars: Homo sapiens, NCI-H929, 24 hours at 37° C. As for the experimental part:
Cell viability assays were performed using A431 or H929 cells. A431 cells were seeded in 96-well plates at 10,000 cells/well, and after overnight incubation, treated with compounds at 2-times the final concentration to result in a dose response of 3-fold dilutions from 10 μM to 0.0005 μM (50 μL/well, 0.1% final DMSO concentration). H929 cells were seeded in 96-well plates at 10,000 cells/well and treated immediately with compounds as described above. After 24 hours at 37° C., cell viability was measured using Cell TiterGlo reagent (Promega) with a luminescence reader. Alternately, cell viability assays were performed in 384-well format. A431 cells were seeded in 384-well plates at 2500 cells/well and, after overnight incubation, treated with compounds in a dose response of 3-fold dilutions from 10 μM to 0.0005 μM (25 nL/well, 0.1% final DMSO concentration). For the H929 viability assay, 25 nL/well of the compounds was dispensed into 384-well plates in a dose response as described above and cells were immediately seeded in 384-well plates at 2500 cells/well. After 24 hours at 37° C., cell viability was measured using Cell TiterGlo reagent (Promega) with a luminescence reader.

T1 sequence (P50750 whole entry): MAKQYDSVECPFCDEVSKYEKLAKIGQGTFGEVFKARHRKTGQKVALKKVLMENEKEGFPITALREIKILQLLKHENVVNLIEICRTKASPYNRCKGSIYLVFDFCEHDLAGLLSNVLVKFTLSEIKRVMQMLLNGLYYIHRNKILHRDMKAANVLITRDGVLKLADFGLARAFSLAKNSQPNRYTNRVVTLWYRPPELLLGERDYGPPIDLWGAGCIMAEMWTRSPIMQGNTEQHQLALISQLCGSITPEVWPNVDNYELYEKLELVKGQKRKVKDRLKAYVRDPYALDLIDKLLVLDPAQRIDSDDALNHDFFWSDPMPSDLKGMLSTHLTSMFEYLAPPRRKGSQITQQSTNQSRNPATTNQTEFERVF
T1 sequence (O60563 whole entry partner): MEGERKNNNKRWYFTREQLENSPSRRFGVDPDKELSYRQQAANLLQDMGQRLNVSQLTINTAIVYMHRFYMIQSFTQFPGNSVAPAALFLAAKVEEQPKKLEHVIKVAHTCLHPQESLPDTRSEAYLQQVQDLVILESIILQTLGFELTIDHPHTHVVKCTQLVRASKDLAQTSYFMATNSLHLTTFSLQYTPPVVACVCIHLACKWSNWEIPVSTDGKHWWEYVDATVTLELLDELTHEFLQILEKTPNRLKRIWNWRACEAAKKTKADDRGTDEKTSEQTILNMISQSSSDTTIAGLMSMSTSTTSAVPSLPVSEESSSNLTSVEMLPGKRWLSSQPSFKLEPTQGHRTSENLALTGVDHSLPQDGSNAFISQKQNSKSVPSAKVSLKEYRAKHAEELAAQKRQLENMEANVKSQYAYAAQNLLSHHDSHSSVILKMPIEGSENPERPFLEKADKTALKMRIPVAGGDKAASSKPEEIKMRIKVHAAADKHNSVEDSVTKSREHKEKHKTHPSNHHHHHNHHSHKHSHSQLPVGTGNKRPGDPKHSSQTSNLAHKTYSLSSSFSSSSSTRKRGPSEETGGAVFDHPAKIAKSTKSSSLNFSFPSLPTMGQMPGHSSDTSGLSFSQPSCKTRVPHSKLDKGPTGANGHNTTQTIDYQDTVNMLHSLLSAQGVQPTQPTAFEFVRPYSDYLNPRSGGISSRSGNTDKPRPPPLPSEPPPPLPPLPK

On CDK9/Cyclin T1, `COc1ccc(F)cc1-c1ncnc2[nH]c(C3=CCN(C(=O)C4CCCOC4)CC3)cc12` (stereo not drawn) [Example 15, 4-[4-(5-fluoro-2-methoxyphenyl)-7H-pyrrolo[2,3-d]pyrimidin-6-yl]-3,6-dihydropyridin-1(2H)-yl(tetrahydro-2H-pyran-3-yl)methanone] had a pIC50 of 7.07. In the test with H929 cells, this compound had a pEC50 of 6.68.
Consider `COc1ccc(F)cc1-c1ncnc2[nH]c(C3=CCN(CC4CCNCC4)CC3)cc12` [Example 39, 4-(5-fluoro-2-methoxyphenyl)-6-[1-(piperidin-4-ylmethyl)-1,2,3,6-tetrahydropyridin-4-yl]-7H-pyrrolo[2,3-d]pyrimidine], for which the pIC50 on CDK9/Cyclin T1 was 6.68. The compound further showed a pEC50 in the test with H929 cells of 5.32.
`COc1ccc(F)cc1-c1ncnc2[nH]c(C3=CCOCC3)cc12` [Example 65, 6-(3,6-dihydro-2H-pyran-4-yl)-4-(5-fluoro-2-methoxyphenyl)-7H-pyrrolo[2,3-d]pyrimidine] had a negative logarithm of the IC50 (pIC50) on CDK9/Cyclin T1 of 7.16. The compound further showed a pEC50 in the test with H929 cells of 6.00.
In the case of `CS(=O)(=O)N1CC=C(c2cc3c(-c4cc(NCc5ccncc5)ccc4F)ncnc3[nH]2)CC1` [Example 37, 4-fluoro-3-{6-[1-(methylsulfonyl)-1,2,3,6-tetrahydropyridin-4-yl]-7H-pyrrolo[2,3-d]pyrimidin-4-yl}-N-(pyridin-4-ylmethyl)aniline], the pIC50 against CDK9/Cyclin T1 was 7.29. Moreover, the pEC50 with H929 cells is 6.48.
`COCC(=O)N1CC=C(c2cc3c(-c4cc(F)ccc4OC)ncnc3[nH]2)CC1` [Example 18, 1-{4-[4-(5-fluoro-2-methoxyphenyl)-7H-pyrrolo[2,3-d]pyrimidin-6-yl]-3,6-dihydropyridin-1(2H)-yl}-2-methoxyethanone]: the pIC50 against CDK9/Cyclin T1 was 6.89. This compound had a pEC50 in the test with H929 cells of 6.40.
For `COc1ccc(F)cc1-c1ncnc2[nH]c(C3=CCN([C@H]4CC[C@H](CC(=O)O)CC4)CC3)cc12` [Example 87, (trans-4-{4-[4-(5-fluoro-2-methoxyphenyl)-7H-pyrrolo[2,3-d]pyrimidin-6-yl]-3,6-dihydropyridin-1(2H)-yl}cyclohexyl)acetic acid], in that order: 6.52 and 5.39.
For the compound `CCOC(=O)NS(=O)(=O)N1CC=C(c2cc3c(-c4cc(F)ccc4OC)ncnc3[nH]2)CC1` [Example 82, ethyl ({4-[4-(5-fluoro-2-methoxyphenyl)-7H-pyrrolo[2,3-d]pyrimidin-6-yl]-3,6-dihydropyridin-1(2H)-yl}sulfonyl)carbamate], the pIC50 against CDK9/Cyclin T1 was 7.15. Also, the pEC50 in the test on H929 cells was 6.11.
In turn, `COc1ccc(F)cc1-c1ncnc2[nH]c(C3=CCN(Cc4ccccc4)CC3)cc12` [Example 21, 6-(1-benzyl-1,2,3,6-tetrahydropyridin-4-yl)-4-(5-fluoro-2-methoxyphenyl)-7H-pyrrolo[2,3-d]pyrimidine] had a pIC50 against CDK9/Cyclin T1 of 7.46. In the test on H929 cells, this compound showed a pEC50 of 6.36.
For `CS(=O)(=O)N1CC=C(c2cc3c(-c4cc(NCc5ccccc5)ccc4F)ncnc3[nH]2)CC1` [Example 29, N-benzyl-4-fluoro-3-{6-[1-(methylsulfonyl)-1,2,3,6-tetrahydropyridin-4-yl]-7H-pyrrolo[2,3-d]pyrimidin-4-yl}aniline], in that order: 6.89 and 6.54.
For `COc1ccc(F)cc1-c1ncnc2[nH]c(C3=CCC(N[C@@H](CC(C)C)C(=O)O)CC3)cc12` (stereo partly drawn) [Example 85, N-{4-[4-(5-fluoro-2-methoxyphenyl)-7H-pyrrolo[2,3-d]pyrimidin-6-yl]cyclohex-3-en-1-yl}-L-leucine], in that order: 6.77 and 5.77.
The compound `COc1ccc(F)cc1-c1ncnc2[nH]c(C3=CCN(C(=O)[C@H]4CC[C@H](C(=O)O)CC4)CC3)cc12` [Example 74, trans-4-({4-[4-(5-fluoro-2-methoxyphenyl)-7H-pyrrolo[2,3-d]pyrimidin-6-yl]-3,6-dihydropyridin-1(2H)-yl}carbonyl)cyclohexanecarboxylic acid] had a pIC50 at CDK9/Cyclin T1 of 6.96. This compound gave a pEC50 in the test on H929 cells of 5.23.
`COc1ccc(F)cc1-c1ncnc2[nH]c(C3=CCN(S(C)(=O)=O)CC3)cc12` [Example 5, 4-(5-fluoro-2-methoxyphenyl)-6-[1-(methylsulfonyl)-1,2,3,6-tetrahydropyridin-4-yl]-7H-pyrrolo[2,3-d]pyrimidine] showed a pIC50 on CDK9/Cyclin T1 of 7.70. Also, the pEC50 with H929 cells was 6.42.
`COc1ccc(F)cc1-c1ncnc2[nH]c(C3=CCN(Cc4ccc(NC(C)=O)cc4)CC3)cc12` [Example 25, N-[4-({4-[4-(5-fluoro-2-methoxyphenyl)-7H-pyrrolo[2,3-d]pyrimidin-6-yl]-3,6-dihydropyridin-1(2H)-yl}methyl)phenyl]acetamide] showed a pIC50 at CDK9/Cyclin T1 of 7.12. The compound also had a pEC50 in the test with H929 cells of 7.24.
For `COc1ccc(F)cc1-c1ncnc2[nH]c(C3=CCN(Cc4cccnc4)CC3)cc12` [Example 34, 4-(5-fluoro-2-methoxyphenyl)-6-[1-(pyridin-3-ylmethyl)-1,2,3,6-tetrahydropyridin-4-yl]-7H-pyrrolo[2,3-d]pyrimidine], the pIC50 against CDK9/Cyclin T1 is 6.77. In the test with H929 cells, this compound had a pEC50 of 6.20.
Consider `COc1ccc(F)cc1-c1ncnc2[nH]c(C3=CCN(C(C)=O)CC3)cc12` [Example 6, 1-{4-[4-(5-fluoro-2-methoxyphenyl)-7H-pyrrolo[2,3-d]pyrimidin-6-yl]-3,6-dihydropyridin-1(2H)-yl}ethanone], for which, on CDK9/Cyclin T1, the pIC50 is 7.38. Besides, the pEC50 with H929 cells is 6.39.
Regarding `COc1ccc(F)cc1-c1ncnc2[nH]c(C3=CCN(Cc4ccccn4)CC3)cc12` [Example 26, 4-(5-fluoro-2-methoxyphenyl)-6-[1-(pyridin-2-ylmethyl)-1,2,3,6-tetrahydropyridin-4-yl]-7H-pyrrolo[2,3-d]pyrimidine], the pIC50 against CDK9/Cyclin T1 was 6.72. The compound also showed a pEC50 in the test on H929 cells of 6.21.
At CDK9/Cyclin T1, `COc1ccc(F)cc1-c1ncnc2[nH]c(C3=CCN(C(=O)N(C)C)CC3)cc12` [Example 75, 4-[4-(5-fluoro-2-methoxyphenyl)-7H-pyrrolo[2,3-d]pyrimidin-6-yl]-N,N-dimethyl-3,6-dihydropyridine-1(2H)-carboxamide] gave a pIC50 of 7.80. The pEC50 in the test with H929 cells was 6.22.
For `COc1ccc(F)cc1-c1ncnc2[nH]c(C3=CCN(S(=O)(=O)C(C)C)CC3)cc12` [Example 10, 4-(5-fluoro-2-methoxyphenyl)-6-[1-(propan-2-ylsulfonyl)-1,2,3,6-tetrahydropyridin-4-yl]-7H-pyrrolo[2,3-d]pyrimidine], in that order: 6.80 and 6.26.
On CDK9/Cyclin T1, `COC(=O)c1ccc(CN2CC=C(c3cc4c(-c5cc(F)ccc5OC)ncnc4[nH]3)CC2)cc1` [Example 71, methyl 4-({4-[4-(5-fluoro-2-methoxyphenyl)-7H-pyrrolo[2,3-d]pyrimidin-6-yl]-3,6-dihydropyridin-1(2H)-yl}methyl)benzoate] showed a pIC50 of 6.96. The compound further had a pEC50 in the test with H929 cells of 6.11.
As to `COc1ccc(F)cc1-c1ncnc2[nH]c(C3=CCN(C(=O)C4CC(=O)N4)CC3)cc12` (stereo not drawn) [Example 13, 4-({4-[4-(5-fluoro-2-methoxyphenyl)-7H-pyrrolo[2,3-d]pyrimidin-6-yl]-3,6-dihydropyridin-1(2H)-yl}carbonyl)azetidin-2-one], the pIC50 against CDK9/Cyclin T1 was 7.16. The pEC50 in the test with H929 cells was 6.08.
Regarding `CCOc1ccc(F)cc1-c1ncnc2[nH]c(C3=CCN(Cc4ccc(NC(C)=O)cc4)CC3)cc12` [Example 68, N-[4-({4-[4-(2-ethoxy-5-fluorophenyl)-7H-pyrrolo[2,3-d]pyrimidin-6-yl]-3,6-dihydropyridin-1(2H)-yl}methyl)phenyl]acetamide], the pIC50 against CDK9/Cyclin T1 was 6.70. The pEC50 with H929 cells is 6.38.
`COc1ccc(F)cc1-c1ncnc2[nH]c(C3=CCN(Cc4cccc(C#N)c4)CC3)cc12` [Example 23, 3-({4-[4-(5-fluoro-2-methoxyphenyl)-7H-pyrrolo[2,3-d]pyrimidin-6-yl]-3,6-dihydropyridin-1(2H)-yl}methyl)benzonitrile] had a pIC50 on CDK9/Cyclin T1 of 6.57. Besides, the pEC50 in the test on H929 cells is 6.38.
Regarding `COc1ccc(F)cc1-c1ncnc2[nH]c(C3=CCN(C)CC3)cc12` [Example 4, 4-(5-fluoro-2-methoxyphenyl)-6-(1-methyl-1,2,3,6-tetrahydropyridin-4-yl)-7H-pyrrolo[2,3-d]pyrimidine], the pIC50 against CDK9/Cyclin T1 was 7.64. Further, in the test on H929 cells, the pEC50 is 6.46.
Compound `COc1ccc(F)cc1-c1ncnc2[nH]c(C3=CCC(N[C@H](C(=O)O)C(C)(C)C)CC3)cc12` (stereo partly drawn) [Example 83, N-{4-[4-(5-fluoro-2-methoxyphenyl)-7H-pyrrolo[2,3-d]pyrimidin-6-yl]cyclohex-3-en-1-yl}-3-methyl-L-valine] had a pIC50 on CDK9/Cyclin T1 of 6.49. The pEC50 with H929 cells is 6.28.
